Assay results: US11999746B2, “Compounds” (GlaxoSmithKline Intellectual Property Development Limited, priority 2014, dated 2024)

Key:
Lp-PLA2 in human plasma = target: T1, Lp-PLA2 in human plasma (Homo sapiens, UniProt Q13093); assay: (3a) Lp-PLA2 human plasma Thio-PAF assay; assay type: biochemical; conditions: (3a) Thio-PAF assay, pooled human plasma; Examples 1-265 and 413-430 were tested here; read-out: pIC50 in the Lp-PLA2 human plasma assay (converted)
T1 construct: from tissue; host or cells: pooled human plasma
T1 sequence (Q13093 22-441): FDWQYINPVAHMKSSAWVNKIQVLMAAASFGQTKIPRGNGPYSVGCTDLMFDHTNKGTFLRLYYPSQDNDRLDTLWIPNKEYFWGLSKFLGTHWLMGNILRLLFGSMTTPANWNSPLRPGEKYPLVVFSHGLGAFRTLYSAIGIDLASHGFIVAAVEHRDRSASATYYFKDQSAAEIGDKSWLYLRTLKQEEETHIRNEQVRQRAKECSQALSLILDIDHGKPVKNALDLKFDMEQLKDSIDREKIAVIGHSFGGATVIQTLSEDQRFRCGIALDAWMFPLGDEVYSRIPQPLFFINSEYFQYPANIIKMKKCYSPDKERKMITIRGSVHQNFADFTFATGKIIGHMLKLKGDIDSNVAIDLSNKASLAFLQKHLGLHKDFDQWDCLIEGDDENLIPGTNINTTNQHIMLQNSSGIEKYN
Procedure, shortened: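 Endogenous Lp-PLA2 activity in frozen pooled human plasma measured as thiol release from 2-thio-PAF, detected by CPM fluorescence (ex 380/em 485). Compound preincubation 30 min; 2-min reaction in HEPES pH 7.4 buffer with NEM, stopped with 5% TFA, read 40 min later at room temperature; values as pIC50.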

[1] = target: T2, recombinant human Lp-PLA2 (Homo sapiens, UniProt Q13093); assay: (1a) PED6 assay, recombinant human Lp-PLA2 (rhLp-PLA2); assay type: biochemical; conditions: Examples 1-167 and 413-430 were tested here, one experiment or average of multiple experiments, read-out: rhLp-PLA2 (pIC50) (converted)
T2 sequence (Q13093 22-441): T1 sequence (Q13093 22-441)
Procedure, shortened: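 PED6 (2 μM final after 1:1 addition of 4 μM stock) cleavage by rhLp-PLA2 (4 nM working solution) in 50 mM HEPES pH 7.4, 150 mM NaCl, 1 mM CHAPS; compounds preincubated with enzyme 30 minutes, reaction 20 min at room temperature. Fluorescence at ex 480/em 540; pIC50 from curve fit.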

| Compound | IC50 (Lp-PLA2 in human plasma) | IC50 [1] |
| --- | --- | --- |
| O=c1nc(OCc2cccc(F)c2F)cc2n1C[C@@H]1COCCN21 [Example E131, (R)-7-((2,3-difluorobenzyl)oxy)-3,4,11,11a-tetrahydropyrimido[6′,1′:2,3]imidazo[5,1-c][1,4] oxazin-9(1H)-one] | ≤ 100 nM | ≤ 100 nM |
| O=c1nc(OCc2cccc(F)c2)cc2n1C[C@@H]1COCCN21 [Example E132, (R)-7-((3-fluorobenzyl)oxy)-3,4,11,11a-tetrahydropyrimido[6′,1′:2,3]imidazo[5,1-c][1,4] oxazin-9(1H)-one] | ≤ 10000 nM | ≤ 100 nM |
| O=c1nc(OCc2cc(F)cc(F)c2)cc2n1C[C@@H]1COCCN21 [Example E133, (R)-7-((3,5-difluorobenzyl)oxy)-3,4,11,11a-tetrahydropyrimido[6′,1′:2,3]imidazo[5,1-c][1,4] oxazin-9(1H)-one] | ≤ 10000 nM | ≤ 100 nM |
| O=c1nc(OCc2cc(F)c(Oc3ccnc(C(F)(F)F)c3)c(F)c2)cc2n1C[C@@H]1CCOCN21 [Example E134, (S)-3-((3,5-difluoro-4-((2-(trifluoromethyl)pyridin-4-yl)oxy)benzyl)oxy)-8,9,9a,10-tetrahydropyrimido[6′,1′:2,3]imidazo[1,5-c][1,3]oxazin-1(6H)-one] | ≤ 100 nM | ≤ 1 nM |
| O=c1nc(OCc2cc(F)c(Oc3ccnc(C(F)(F)F)c3)c(F)c2)cc2n1C[C@H]1CCOCN21 [Example E135, (R)-3-((3,5-difluoro-4-((2-(trifluoromethyl)pyridin-4-yl)oxy)benzyl)oxy)-8,9,9a,10-tetrahydropyrimido[6′,1′:2,3]imidazo[1,5-c][1,3]oxazin-1(6H)-one] | ≤ 100 nM | ≤ 1 nM |
| Cn1cc(Oc2c(F)cc(COc3cc4n(c(=O)n3)C[C@@H]3CCOCN43)cc2F)cn1 [Example E136, (S)-3-((3,5-difluoro-4-((1-methyl-1H-pyrazol-4-yl)oxy)benzyl)oxy)-8,9,9a,10-tetrahydropyrimdo[6′,1′:2,3]imidazo[1,5-c][1,3]oxazin-1(6H)-one] | ≤ 10000 nM | ≤ 100 nM |
| Cn1cc(Oc2c(F)cc(COc3cc4n(c(=O)n3)C[C@H]3CCOCN43)cc2F)cn1 [Example E137, (R)-3-((3,5-difluoro-4-((1-methyl-1H-pyrazol-4-yl)oxy)benzyl)oxy)-8,9,9a,10-tetrahydropyrimido[6′,1′:2,3]imidazo[1,5-c][1,3]oxazin-1(6H)-one] | ≤ 10000 nM | ≤ 100 nM |
| O=c1nc(OCc2cccc(F)c2)cc2n1C[C@@H]1CCOCN21 [Example E138, (S)-3-((3-fluorobenzyl)oxy)-8,9,9a,10-tetrahydropyrimido[6′,1′:2,3]imidazo[1,5-c][1,3] oxazin-1(6H)-one] | ≤ 10000 nM | ≤ 100 nM |
| O=c1nc(OCc2cc(F)c(F)c(F)c2)cc2n1C[C@@H]1CCOCN21 [Example E139, (S)-3-((3,4,5-trifluorobenzyl)oxy)-8,9,9a,10-tetrahydropyrimido[6′,1′:2,3]imidazo[1,5-c][1,3] oxazin-1(6H)-one] | ≤ 100 nM | ≤ 100 nM |
| O=c1nc(OCc2cc(F)c(OC3(CCF)CC3)c(F)c2)cc2n1C[C@@H]1CCOCN21 [Example E140, (S)-3-((3,5-difluoro-4-(1-(2-fluoroethyl)cyclopropoxy)benzyl)oxy)-8,9,9a,10-tetrahydropyrimido[6′,1′:2,3]imidazo[1,5-c][1,3]oxazin-1(6H)-one] | ≤ 10000 nM | ≤ 100 nM |
| O=c1nc(OCc2cc(F)c(Oc3ccnc(C(F)(F)F)c3)c(F)c2)cc2n1C[C@H]1COCN21 [Example E141, (S)-6-((3,5-difluoro-4-((2-(trifluoromethyl)pyridin-4-yl)oxy)benzyl)oxy)-10,10a-dihydro-1H-oxazolo[3′,4′:3,4]imidazo[1,2-c]pyrimidin-8(3H)-one] | ≤ 100 nM | ≤ 1 nM |
| O=c1nc(OCc2cc(F)c(Oc3ccnc(C(F)(F)F)c3)c(F)c2)cc2n1C[C@@H]1COCN21 [Example E142, (R)-6-((3,5-difluoro-4-((2-(trifluoromethyl)pyridin-4-yl)oxy)benzyl)oxy)-10,10a-dihydro-1H-oxazolo[3′,4′:3,4]imidazo[1,2-c]pyrimidin-8(3H)-one] | ≤ 100 nM | ≤ 1 nM |
| Cn1cc(Oc2c(F)cc(COc3cc4n(c(=O)n3)C[C@H]3COCN43)cc2F)cn1 [Example E143, (S)-6-((3,5-difluoro-4-((1-methyl-1H-pyrazol-4-yl)oxy)benzyl)oxy)-10,10a-dihydro-1H-oxazolo[3′,4′:3,4]imidazo[1,2-c]pyrimidin-8(3H)-one] | ≤ 10000 nM | ≤ 100 nM |
| Cn1cc(Oc2c(F)cc(COc3cc4n(c(=O)n3)C[C@@H]3COCN43)cc2F)cn1 [Example E144, (R)-6-((3,5-difluoro-4-((1-methyl-1H-pyrazol-4-yl)oxy)benzyl)oxy)-10,10a-dihydro-1H-oxazolo[3′,4′:3,4]imidazo[1,2-c]pyrimidin-8(3H)-one] | ≤ 10000 nM | ≤ 100 nM |
| O=c1nc(OCc2ccc(Cl)c(F)c2)cc2n1C[C@H]1COCN21 [Example E145, (S)-6-((4-chloro-3-fluorobenzyl)oxy)-10,10a-dihydro-1H-oxazolo[3′,4′:3,4]imidazo[1,2-c] pyrimidin-8(3H)-one] | ≤ 10000 nM | ≤ 100 nM |
| O=c1nc(OCc2cc(F)c(F)c(F)c2)cc2n1C[C@H]1COCN21 [Example E146, (S)-6-((3,4,5-trifluorobenzyl)oxy)-10,10a-dihydro-1H-oxazolo[3′,4′:3,4]imidazo[1,2-c] pyrimidin-8(3H)-one] | ≤ 100 nM | ≤ 100 nM |
| O=c1nc(OCc2cc(F)cc(F)c2)cc2n1C[C@H]1COCN21 [Example E147, (S)-6-((3,5-difluorobenzyl)oxy)-10,10a-dihydro-1H-oxazolo[3′,4′:3,4]imidazo[1,2-c] pyrimidin-8(3H)-one] | ≤ 10000 nM | ≤ 100 nM |
| O=c1nc(OCc2cccc(F)c2)cc2n1C[C@H]1COCN21 [Example E148, (S)-6-((3-fluorobenzyl)oxy)-10,10a-dihydro-1H-oxazolo[3′,4′:3,4]imidazo[1,2-c]pyrimidin-8(3H)-one] | ≤ 10000 nM | ≤ 100 nM |
| Cc1ccc(Oc2c(F)cc(COc3cc4n(c(=O)n3)C[C@H]3COCN43)cc2F)cn1 [Example E149, (S)-6-((3,5-difluoro-4-((6-methylpyridin-3-yl)oxy)benzyl)oxy)-10,10a-dihydro-1H-oxazolo[3′,4′:3,4]imidazo[1,2-c]pyrimidin-8(3H)-one] | ≤ 100 nM | ≤ 1 nM |
| CCCn1cc(Oc2c(F)cc(COc3cc4n(c(=O)n3)C[C@H]3COCN43)cc2F)cn1 [Example E150, (S)-6-((3,5-difluoro-4-((1-propyl-1H-pyrazol-4-yl)oxy)benzyl)oxy)-10,10a-dihydro-1H-oxazolo[3′,4′:3,4]imidazo[1,2-c]pyrimidin-8(3H)-one] | ≤ 100 nM | ≤ 100 nM |
| O=c1nc(OCc2cc(F)c(Oc3cnn(C(F)(F)F)c3)c(F)c2)cc2n1C[C@H]1COCN21 [Example E151, (S)-6-((3,5-difluoro-4-((1-(trifluoromethyl)-1H-pyrazol-4-yl)oxy)benzyl)oxy)-10,10a-dihydro-1H-oxazolo[3′,4′:3,4]imidazo[1,2-c]pyrimidin-8(3H)-one] | ≤ 100 nM | ≤ 1 nM |
| Cc1ncc(Oc2c(F)cc(COc3cc4n(c(=O)n3)C[C@H]3COCN43)cc2F)cn1 [Example E152, (S)-6-((3,5-difluoro-4-((2-methylpyrimidin-5-yl)oxy)benzyl)oxy)-10,10a-dihydro-1H-oxazolo[3′,4′:3,4]imidazo[1,2-c]pyrimidin-8(3H)-one] | ≤ 100 nM | ≤ 100 nM |
| O=c1nc(OCc2cc(F)c(F)c(F)c2)cc2n1C[C@@H]1COCN21 [Example E153, (R)-6-((3,4,5-trifluorobenzyl)oxy)-10,10a-dihydro-1H-oxazolo[3′,4′:3,4]imidazo[1,2-c] pyrimidin-8(3H)-one] | ≤ 10000 nM | ≤ 100 nM |
| O=c1nc(OCc2cc(F)c(Oc3cnn(C(F)(F)F)c3)c(F)c2)cc2n1C[C@@H]1COCN21 [Example E154, (R)-6-((3,5-difluoro-4-((1-(trifluoromethyl)-1H-pyrazol-4-yl)oxy)benzyl)oxy)-10,10a-dihydro-1H-oxazolo[3′,4′:3,4]imidazo[1,2-c]pyrimidin-8(3H)-one] | ≤ 100 nM | ≤ 1 nM |
| Cc1cc(Oc2c(F)cc(COc3cc4n(c(=O)n3)C[C@@H]3COCN43)cc2F)ccn1 [Example E155, (R)-6-((3,5-difluoro-4-((2-methylpyridin-4-yl)oxy)benzyl)oxy)-10,10a-dihydro-1H-oxazolo[3′,4′:3,4]imidazo[1,2-c]pyrimidin-8(3H)-one] | ≤ 10000 nM | ≤ 100 nM |
